In general, inhibition refers to the share of the control response that was lost under treatment. For orientation: IC50 means the point on the concentration scale where inhibition reaches its midpoint.

The text below walks through data of patent US8937091B2 (Japan Science and Technology Agency, priority 2009, dated 2015).

For test [1], the system named is SOCE (store operated calcium entry) in CHO cells. The test can be described thus: Assay of SOCE (store operated calcium entry)-inhibiting action. The class given is cell-based, Chinese hamster. The following applies: for inhibition at 10 µM: test compound 10 μmol; for inhibition at 10 µM / inhibition at 30 µM / inhibition at 100 µM: read-out: SOCE level (percentage of inhibition); for inhibition at 30 µM: test compound 30 μmol. In a few lines:
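CHO cells in calcium-free BSS received compound, then 1 μM thapsigargin 2 min later to deplete stores; after 9 min, 2 mM calcium chloride (final) added. Percent inhibition of the rise in intracellular calcium determined at various compound concentrations.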

Test [2] relates to IICR (IP3 induced calcium release) in CHO cells. The test can be described thus: Assay of IICR (IP3 induced calcium release)-inhibiting action. The format is cell-based, Chinese hamster. To be noted: for inhibition at 10 µM: test compound 10 μmol. In a few lines:
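Inhibition (%) of the intracellular calcium increase triggered by 10 μM ATP, measured in CHO cells in BSS with calcium. Compound given 1 min after the buffer exchange and 2 min before ATP; values reported per compound concentration.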

[3] abbreviates: Cricetulus griseus, CHO, CHO cells, thapsigargin.
[4] abbreviates: Cricetulus griseus, CHO, test compound 100 μmol, CHO cells, thapsigargin.
[5] abbreviates: Cricetulus griseus, CHO, CHO cells, 10 μM ATP, read-out: IICR level (percentage of inhibition).
[6] abbreviates: Cricetulus griseus, CHO, test compound 30 μmol, CHO cells, 10 μM ATP, read-out: IICR level (percentage of inhibition).
Setting [7] is: Cricetulus griseus, CHO, test compound 100 μmol, CHO cells, 10 μM ATP, read-out: IICR level (percentage of inhibition).
Setting [8] is: Cricetulus griseus, CHO, Table 1.

As to `Cc1ccc(C(=O)CCN(Cc2ccccc2)C(C)C)o1` [Example 136], the inhibition at 10 µM came out at 0% in test [1] (setting [3]) and 50% in test [2] (setting [5]). For the same molecule, the inhibition at 30 µM in test [1] (setting [3]) was 0%; in test [2] (setting [6]), 60%. For the same molecule, the results for the inhibition at 100 µM in test [1] (setting [4]) and in test [2] (setting [7]) were 20% and 80%, respectively.

Take `Cc1ccc(C(=O)CCN(Cc2ccccc2)C(C)(C)C)o1` [Example 137, 2-(N-benzyl-t-butyl)aminoethyl-5-methyl-2-furylketone]: the values for the inhibition at 10 µM in test [1] (setting [3]) and in test [2] (setting [5]) were 0% and 40%, respectively. Also, the inhibition at 30 µM in test [1] (setting [3]) stood at 0%; in test [2] (setting [6]), 50%. Also, the inhibition at 100 µM in test [1] (setting [4]) came to 0%; in test [2] (setting [7]), 50%.

Regarding `Cc1ccc(C(=O)CCN(Cc2ccccc2)Cc2ccccc2)o1` [Example 138, 2-(N-dibenzyl)aminoethyl-5-methyl-2-furylketone], the inhibition at 10 µM in test [1] (setting [3]) and in test [2] (setting [5]) was 0% in each case. In addition, the inhibition at 30 µM in test [1] (setting [3]) came to 10%; in test [2] (setting [6]), 0%. Also, the results for the inhibition at 100 µM in test [1] (setting [4]) and in test [2] (setting [7]) were 20% and 10%, respectively.

Regarding `Cc1ccc(C(=O)CCN(CCO)Cc2ccccc2)o1` [Example 139, 2-(N-benzylhydroxyethyl)aminoethyl-5-methyl-2-furylketone], the inhibition at 10 µM was determined as 0% in test [1] (setting [3]) and 20% in test [2] (setting [5]). Also, the inhibition at 30 µM turned out to be 0% in test [1] (setting [3]) and 20% in test [2] (setting [6]). Further, the inhibition at 100 µM is 0% in test [1] (setting [4]) and 30% in test [2] (setting [7]).

For `Cc1ccc(C(=O)CCN(C)CCO)o1` [Example 140, 2-(N-methylhydroxyethyl)aminoethyl-5-methyl-2-furylketone], the inhibition at 10 µM in test [1] (setting [3]) was determined as 0%; in test [2] (setting [5]), 20%. Also, the inhibition at 30 µM was determined as 0% in test [1] (setting [3]) and 20% in test [2] (setting [6]). The inhibition at 100 µM in test [1] (setting [4]) was found to be 0%; in test [2] (setting [7]) it was 30%.

With `CCC(CO)(CO)NCCC(=O)c1cccc2ccccc12` [Example 141], the results for the inhibition at 10 µM in test [1] (setting [3]) and in test [2] (setting [5]) were 0% and 20%, respectively. For the same molecule, the inhibition at 30 µM in test [1] (setting [3]) came to 0%; in test [2] (setting [6]) it was 20%. Moreover, the values for the inhibition at 100 µM in test [1] (setting [4]) and in test [2] (setting [7]) were 0% and 20%, respectively.

Regarding `CCN(CCC(=O)c1ccco1)Cc1ccccc1` [Example 142, 2-(N-benzylethyl)aminoethyl-2-furylketone], the inhibition at 10 µM in test [1] (setting [3]) was 0%; in test [2] (setting [5]) it was 40%. Besides, the results for the inhibition at 30 µM in test [1] (setting [3]) and in test [2] (setting [6]) were 0% and 50%, respectively. Also, the inhibition at 100 µM in test [1] (setting [4]) is 0%; in test [2] (setting [7]) it was 80%.

For `O=C(CCN(CCO)CCO)c1nccs1` [Example 143, 2-(N,N-dihydroxyethyl)aminoethyl-2-thiazolylketone], the inhibition at 10 µM in test [1] (setting [3]) and in test [2] (setting [5]) was 0% in each case. The results for the inhibition at 30 µM in test [1] (setting [3]) and in test [2] (setting [6]) were 0% and 50%, respectively. The inhibition at 100 µM was 10% in test [1] (setting [4]) and 90% in test [2] (setting [7]).

With `CCN(CCC(=O)c1cccnc1)Cc1ccccc1` [Example 144, 2-(N-benzylethyl)aminoethyl-3-pyridylketone], the inhibition at 10 µM in test [1] (setting [3]) worked out at 0%; in test [2] (setting [5]) it was 30%. For the same molecule, the inhibition at 30 µM came out at 0% in test [1] (setting [3]) and 40% in test [2] (setting [6]). Further, the inhibition at 100 µM in test [1] (setting [4]) is 0%; in test [2] (setting [7]) it was 50%.

Regarding `Cc1ccc(C(=O)CCN(CCO)CCO)o1` [Example 145, 2-(N-bishydroxyethyl)aminoethyl-5-methyl-2-furylketone], the inhibition at 10 µM in test [1] (setting [3]) is 0%; in test [2] (setting [5]) it was 50%. For the same molecule, the inhibition at 30 µM is 10% in test [1] (setting [3]) and 30% in test [2] (setting [6]). In addition, the inhibition at 100 µM is 20% in test [1] (setting [4]) and 30% in test [2] (setting [7]).

With `Cc1ccc(C(=O)CCN(CCO)C(C)C)o1` [Example 146, 2-(N-isopropylhydroxyethyl)aminoethyl-5-methyl-2-furylketone], the values for the inhibition at 10 µM in test [1] (setting [3]) and in test [2] (setting [5]) were 0% and 50%, respectively. Besides, the results for the inhibition at 30 µM in test [1] (setting [3]) and in test [2] (setting [6]) were 0% and 30%, respectively. The values for the inhibition at 100 µM in test [1] (setting [4]) and in test [2] (setting [7]) were 0% and 90%, respectively.

For `O=C(CCN(CCO)CCO)c1ccc2ccccc2c1` [Example 147, 2-(N-bishydroxyethyl)aminoethyl-2-naphthylketone], the inhibition at 10 µM in test [1] (setting [3]) came to 0%; in test [2] (setting [5]), 20%. Besides, the inhibition at 30 µM in test [1] (setting [3]) was 0%; in test [2] (setting [6]), 60%. For the same molecule, the inhibition at 100 µM came to 0% in test [1] (setting [4]) and 90% in test [2] (setting [7]).

With `COc1ccc(C(=O)CCN(CCO)CCO)cc1` [Example 148, 2-(N-bishydroxyethyl)aminoethyl-4-methoxyphenylketone], the inhibition at 10 µM in test [1] (setting [3]) amounted to 0%; in test [2] (setting [5]) it was 20%. The inhibition at 30 µM in test [1] (setting [3]) came to 0%; in test [2] (setting [6]), 30%. In addition, the inhibition at 100 µM in test [1] (setting [4]) came to 0%; in test [2] (setting [7]), 90%.

`O=C(CCN(CCO)CCO)c1cccs1` [Example 149, 2-(N-dihydroxyethyl)aminoethylthiophenylketone]: the inhibition at 10 µM in test [1] (setting [3]) came out at 0%; in test [2] (setting [5]), 20%. Besides, the inhibition at 30 µM in test [1] (setting [3]) stood at 0%; in test [2] (setting [6]) it was 20%. For the same molecule, the inhibition at 100 µM in test [1] (setting [4]) amounted to 0%; in test [2] (setting [7]) it was 80%.

With `O=C(CCN(CCO)CCO)c1cccnc1` [Example 150, 2-(N-bishydroxyethyl)aminoethyl-3-pyridylketone], the values for the inhibition at 10 µM in test [1] (setting [3]) and in test [2] (setting [5]) were 0% and 30%, respectively. The inhibition at 30 µM in test [1] (setting [3]) was 0%; in test [2] (setting [6]), 20%. The inhibition at 100 µM came to 10% in test [1] (setting [4]) and 50% in test [2] (setting [7]).

With `CC(C)N(CCO)CCC(=O)c1cnccn1` [Example 151, 2-(N-isopropylhydroxyethyl)aminoethyl-2-pyrazylketone], the inhibition at 10 µM was found to be 0% in test [1] (setting [3]) and 20% in test [2] (setting [5]). In addition, the inhibition at 30 µM in test [1] (setting [3]) stood at 0%; in test [2] (setting [6]) it was 20%. Besides, the inhibition at 100 µM in test [1] (setting [4]) turned out to be 0%; in test [2] (setting [7]), 50%.

Consider `Cc1ccc(C(=O)CCNCc2ccccc2)o1` [Example 152, 2-(N-benzyl)aminoethyl-5-methyl-2-furylketone], for which the inhibition at 10 µM in test [1] (setting [3]) stood at 0%; in test [2] (setting [5]), 20%. Also, the inhibition at 30 µM in test [1] (setting [3]) and in test [2] (setting [6]) was 10% in each case. The inhibition at 100 µM in test [1] (setting [4]) and in test [2] (setting [7]) was 30% each time.

With `CC(C)N(CCO)CCC(=O)c1ccco1` [Example 153, 2-(N-hydroxyethylisopropyl)aminoethyl-2-furylketone], in test [1] (setting [3]), the inhibition at 10 µM amounted to 0%. Also, the inhibition at 30 µM in test [1] (setting [3]) came out at 0%. Also, the IC50 was over 100 µM in test [1] (setting [8]) and 20 µM in test [2] (setting [8]). The “SOCE level (percentage of inhibition)” value in test [1] (test compound 100 μmol, CHO cells, thapsigargin) came out at 10%. In addition, in test [2] (Cricetulus griseus, CHO, test compound 20 μmol, CHO cells, 10 μM ATP, read-out: IICR level (percentage of inhibition)), the inhibition at 20 µM amounted to 50%. Besides, the “IICR level (percentage of inhibition)” value is 60% in test [2] (test compound 30 μmol, CHO cells, 10 μM ATP) and 80% in test [2] (test compound 100 μmol, CHO cells, 10 μM ATP).

For `CC(C)N(CCO)CCC(=O)c1ccccn1` [Example 154, 2-(N-hydroxyethylisopropyl)aminoethyl-2-pyridylketone], the inhibition at 10 µM in test [1] (setting [3]) came out at 0%; in test [2] (setting [5]), 40%. The inhibition at 30 µM worked out at 0% in test [1] (setting [3]) and 20% in test [2] (setting [6]). The values for the inhibition at 100 µM in test [1] (setting [4]) and in test [2] (setting [7]) were 0% and 80%, respectively.

For the molecule `CC(C)N(CCO)CCC(=O)c1ccncc1` [Example 155, 2-(N-hydroxyethylisopropyl)aminoethyl-4-pyridylketone], the inhibition at 10 µM turned out to be 0% in test [1] (setting [3]) and 20% in test [2] (setting [5]). The inhibition at 30 µM was 0% in test [1] (setting [3]) and 50% in test [2] (setting [6]). Also, the inhibition at 100 µM was determined as 0% in test [1] (setting [4]) and 80% in test [2] (setting [7]).

As to `CC(C)N(CCO)CCC(=O)c1nccs1` [Example 156, 2-(N-hydroxyethylisopropyl)aminoethyl-2-thiazolylketone], the figures for the inhibition at 10 µM in test [1] (setting [3]) and in test [2] (setting [5]) were 0% and 20%, respectively. Besides, the values for the inhibition at 30 µM in test [1] (setting [3]) and in test [2] (setting [6]) were 10% and 30%, respectively. In addition, the inhibition at 100 µM in test [1] (setting [4]) amounted to 20%; in test [2] (setting [7]) it was 60%.

As to `CC(CN(CCO)C(C)C)C(=O)c1ccc(F)cc1` (centres unmarked) [Example 157, 1-methyl-2-(N-hydroxyethylisopropyl)aminoethyl-4-fluorophenylketone], the inhibition at 10 µM in test [1] (setting [3]) and in test [2] (setting [5]) was 0% each time. The inhibition at 30 µM in test [1] (setting [3]) and in test [2] (setting [6]) was 0% each time. Moreover, the inhibition at 100 µM in test [1] (setting [4]) and in test [2] (setting [7]) was 0% each time.
